# Test results: publication PMC12024397, “Structure–Activity Study of the Antimicrobial Lipopeptide Humimycin A and Screening Against Multidrug-Resistant Staphylococcus aureus” (Antibiotics, 2025)
# Non-standard residues stand in square brackets, D forms with d. Residues, ends and D or L forms follow the SMILES beside them. *: point of attachment. Tetradecanoyl(3R-OH) = CCCCCCCCCCC[C@@H](O)CC(=O)*; Tetradecanoyl(3S-OH) = CCCCCCCCCCC[C@H](O)CC(=O)*
# How the values were obtained:
# [1] = test system: Escherichia coli ATCC 25922; assay: MIC, broth microdilution; format: cell-based; details: 37 °C, 18–20 h, triplicate
# Text: (§1) Analogs were serially diluted two-fold from stock solutions.
# [2] = test system: Pseudomonas aeruginosa ATCC 27853; assay: MIC, broth microdilution; format: cell-based; details: 37 °C, 18–20 h, triplicate
# Text: as §1
# [3] = test system: Bacillus subtilis ATCC 23857; assay: MIC, broth microdilution; format: cell-based; details: 37 °C, 18–20 h, triplicate
# Text: as §1
# [4] = test system: Salmonella enterica ATCC 14028; assay: MIC, broth microdilution; format: cell-based; details: 37 °C, 18–20 h, triplicate
# Text: as §1
# [5] = test system: S. aureus ATCC 29213; assay: growth kinetics; format: cell-based, Staphylococcus aureus; details: TSB, 37 °C, 6 h, OD 595 nm every 2 h, peptide at MIC, three independent experiments
# Procedure: Figure 2 Growth kinetics of S. aureus ATCC 29213 in the presence of humimycin analogs 12R, 12S, 13R, and 13S. Cultures of S. aureus were treated with various concentrations (2 × MIC, MIC, ½ × MIC, and ¼ × MIC) of the peptides and their growth was monitored by measuring the optical density at 595 nm. The positive control consisted of an untreated S. aureus culture, while the negative control contained only the growth medium without bacterial inoculation. The data represents the mean ± standard deviation of three independent experiments.
# The growth kinetics of S. aureus ATCC 29213 in presence of humimycin analogs 12R, 12S, 13R, and 13S was assessed on S. aureus cultures in TSB at 37 °C in the stationary phase. The overnight culture was then diluted 1:100 in fresh TSB to achieve an initial optical density at 600 nm (OD600) of approximately 0.05. Humimycin analogs were prepared at concentrations corresponding to 0.5×, 1×, and 2× the MIC. S. aureus cultures without any analog served as the positive control and culture media was the negative control. The treated and control cultures were incubated at 37 °C for a total duration of 6 h. Absorbance readings at 595 nm were recorded every 2 h using a microplate reader to monitor the bacterial growth. The OD595 values were then plotted against time to generate bacterial growth curves. To ensure reproducibility, all experiments were performed in triplicate, with results expressed in a graph as mean ± standard deviation.
# [6] = test system: Staphylococcus aureus ATCC 29213; format: cell-based
# Text: as §1
# [7] = test system: Staphylococcus aureus ATCC 43300; format: cell-based; details: for MIC: ATCC 43300; for fold decrease in activity against the methicillin-resistant strain: MIC against MRSA ATCC 43300 compared with MSSA ATCC 29213
# Text: as §1
# [8] = test system: human red blood cells; format: cell-based; details: red cells of human, 1 h
# Procedure: Figure 3 The hemolytic activity of synthetic humimycin analogs 12R, 12S, 13R, and 13S on human erythrocytes. Positive control: 0.2% Triton X-100 in PBS, negative control: PBS. The data represent the mean ± standard deviation of three independent experiments.
# Hemolytic potential of the humimycin analogs 12R, 12S, 13R, and 13S, was evaluated by exposing fresh, uninfected red blood cells (RBCs) to 16 two-fold serial dilutions of each analog, ranging from 512 μg/mL to 0.015 μg/mL, in RPMI-1640 medium supplemented with HEPES and containing a maximum of 0.5% dimethyl sulfoxide (DMSO). The assay was performed in round-bottom 96-well plates at a final hematocrit of 1%. Mock control wells contained RBCs in RPMI-1640 with 1% DMSO, while 100% lysis control wells contained RBCs in RPMI-1640 with 1% DMSO and 1% Triton X-100. The plates were incubated for 1 h at 37 °C under a gassed atmosphere. Following incubation, the plates were centrifuged at 800× g for 5 min, and 100 μL of supernatant from each well was transferred to a clean flat-bottom 96-well plate. The absorbance of released hemoglobin in the supernatant was measured at 405 nm using a VICTOR plate reader (PerkinElmer). The percentage of hemolysis was calculated by comparing the absorbance of the supernatant from compound-treated RBCs to that of the mock control and 100% lysis control wells. All assays were performed in triplicates.
# [9] = test system: S. aureus strain 4-156; details: broth microdilution, triplicate; isolate 4-156, no resistance profile listed
# Text: (§2) The bacterial strains used in this study included S. aureus ATCC 29213 and ATCC 43300, B. subtilis ATCC […], E. coli ATCC 25922, P. aeruginosa ATCC 27853, and S. enterica serovar Typhimurium ATCC 14028, all of which were purchased from Cedarlane, Canada. Additionally, a collection of 19 S. aureus strains, ranging from antibiotic-sensitive to multidrug-resistant, and originating from clinical intramammary infections (IMI), was selected from the Mastitis Pathogen Culture Collection of the Canadian Bovine Mastitis Research Network (Université de Montréal, St-Hyacinthe, QC, Canada). These strains, previously used in other studies, were also included in this work. S. aureus ATCC 29213 and B. subtilis ATCC 6633 were cultured in Tryptic Soy Broth (TSB) (Difco^TM, Becton, Dickenson & Company, Spark, MD, USA). E. coli ATCC 25922 and P. aeruginosa ATCC 27853 were grown in Luria–Bertani (LB) broth (Fisher Scientific, Fair Lawn, NJ, USA). S. enterica serovar Typhimurium ATCC 14028 was propagated in Nutrient Broth (NB) (Oxoid, Basingstoke, UK). All bacterial cultures were incubated overnight at 37 °C before use and during the performance of assays.
# (§3) MIC assays were performed using the broth microdilution method in 96-well plates. Analogs were serially diluted two-fold from stock solutions. The plates were incubated overnight at 37 °C and bacterial growth was monitored by measuring the absorbance at 595 nm over 18–20 h and the assay was performed in triplicate.
# [10] = test system: S. aureus strain 4-157; details: broth microdilution, triplicate; isolate 4-157, no resistance profile listed
# Text: as §2, §3
# [11] = test system: S. aureus strain A-165; details: broth microdilution, triplicate; isolate A-165, resistance PEN-CEF-CTX-FOX-CIP-CC-KAN-GEN-STR-P/N
# Text: as §2, §3
# [12] = test system: S. aureus strain 4-162; details: broth microdilution, triplicate; isolate 4-162, no resistance profile listed
# Text: as §2, §3
# [13] = test system: S. aureus strain 4-170; details: broth microdilution, triplicate; isolate 4-170, no resistance profile listed
# Text: as §2, §3
# [14] = test system: S. aureus strain 4-145; details: broth microdilution, triplicate; isolate 4-145, no resistance profile listed
# Text: as §2, §3
# [15] = test system: S. aureus strain 4-171; format: cell-based, Staphylococcus aureus; details: broth microdilution, triplicate; isolate 4-171, resistance PEN-AMC-CEF-CTX-FOX
# Text: as §1
smiles,measurement,setting,value
CCCCCCCCCCC[C@@H](O)CC(=O)N[C@@H](Cc1c[nH]c2ccccc12)C(=O)N[C@@H](CO)C(=O)N[C@H](Cc1c[nH]c2ccccc12)C(=O)N[C@@H](Cc1ccccc1)C(=O)N[C@@H](C(=O)N[C@H](C(=O)N[C@H](C(=O)O)C(C)C)C(C)C)[C@H](C)O [12R] ({Tetradecanoyl(3R-OH)}-WS[dW]F[dT]VV-OH),MIC,[1],- (No antimicrobial activity was detected up to 256 µg/mL)
same,MIC,[2],- (No antimicrobial activity was detected up to 256 µg/mL)
same,MIC,[3],- (No antimicrobial activity was detected up to 256 µg/mL)
same,MIC,[4],- (No antimicrobial activity was detected up to 256 µg/mL)
same,effect on bacterial growth at MIC,[5],effectively inhibited the growth
same,MIC,[6],16 µg/mL
same,MIC,[7],16 µg/mL
same,HC50,[8],44.8 µg/mL
same,MIC,[9],4 µg/mL
same,MIC,[10],16 µg/mL
same,MIC,[11],256 µg/mL
same,MIC,[12],>256 µg/mL
same,MIC,[13],4 µg/mL
same,MIC,[14],16 µg/mL
same,MIC,[15],2 µg/mL
CCCCCCCCCCC[C@H](O)CC(=O)N[C@@H](Cc1c[nH]c2ccccc12)C(=O)N[C@@H](CO)C(=O)N[C@H](Cc1c[nH]c2ccccc12)C(=O)N[C@@H](Cc1ccccc1)C(=O)N[C@@H](C(=O)N[C@H](C(=O)N[C@H](C(=O)O)C(C)C)C(C)C)[C@H](C)O [12S] ({Tetradecanoyl(3S-OH)}-WS[dW]F[dT]VV-OH),MIC,[1],- (No antimicrobial activity was detected up to 256 µg/mL)
same,MIC,[2],- (No antimicrobial activity was detected up to 256 µg/mL)
same,MIC,[3],- (No antimicrobial activity was detected up to 256 µg/mL)
same,MIC,[4],- (No antimicrobial activity was detected up to 256 µg/mL)
same,effect on bacterial growth at MIC,[5],effectively inhibited the growth
same,MIC,[6],8 µg/mL
same,MIC,[7],16 µg/mL
same,HC50,[8],60.8 µg/mL
same,MIC,[9],8 µg/mL
same,MIC,[10],16 µg/mL
same,MIC,[11],256 µg/mL
same,MIC,[12],>256 µg/mL
same,MIC,[13],8 µg/mL
same,MIC,[14],32 µg/mL
same,MIC,[15],1 µg/mL
CCCCCCCCCCC[C@@H](O)CC(=O)N[C@@H](Cc1c[nH]c2ccccc12)C(=O)N[C@@H](CO)C(=O)N[C@H](Cc1c[nH]c2ccccc12)C(=O)N[C@@H](Cc1ccccc1)C(=O)N[C@@H](C(=O)N[C@@H](C)C(=O)N[C@H](C(=O)O)C(C)C)[C@H](C)O [13R] ({Tetradecanoyl(3R-OH)}-WS[dW]F[dT]AV-OH),MIC,[1],- (No antimicrobial activity was detected up to 256 µg/mL)
same,MIC,[2],- (No antimicrobial activity was detected up to 256 µg/mL)
same,MIC,[3],- (No antimicrobial activity was detected up to 256 µg/mL)
same,MIC,[4],- (No antimicrobial activity was detected up to 256 µg/mL)
same,effect on bacterial growth at MIC,[5],effectively inhibited the growth
same,MIC,[6],4 µg/mL
same,MIC,[7],128 µg/mL
same,fold decrease in activity against the methicillin-resistant strain,[7],32 fold
same,HC50,[8],76.8 µg/mL
same,MIC,[9],16 µg/mL
same,MIC,[10],32 µg/mL
same,MIC,[11],>256 µg/mL
same,MIC,[12],>256 µg/mL
same,MIC,[13],8 µg/mL
same,MIC,[14],16 µg/mL
same,MIC,[15],0.5 µg/mL
CCCCCCCCCCC[C@H](O)CC(=O)N[C@@H](Cc1c[nH]c2ccccc12)C(=O)N[C@@H](CO)C(=O)N[C@H](Cc1c[nH]c2ccccc12)C(=O)N[C@@H](Cc1ccccc1)C(=O)N[C@@H](C(=O)N[C@@H](C)C(=O)N[C@H](C(=O)O)C(C)C)[C@H](C)O [13S] ({Tetradecanoyl(3S-OH)}-WS[dW]F[dT]AV-OH),MIC,[1],- (No antimicrobial activity was detected up to 256 µg/mL)
same,MIC,[2],- (No antimicrobial activity was detected up to 256 µg/mL)
same,MIC,[3],- (No antimicrobial activity was detected up to 256 µg/mL)
same,MIC,[4],- (No antimicrobial activity was detected up to 256 µg/mL)
same,effect on bacterial growth at MIC,[5],effectively inhibited the growth
same,MIC,[6],2 µg/mL
same,MIC,[7],64 µg/mL
same,fold decrease in activity against the methicillin-resistant strain,[7],32 fold
same,HC50,[8],48 µg/mL
same,MIC,[9],8 µg/mL
same,MIC,[10],32 µg/mL
same,MIC,[11],>256 µg/mL
same,MIC,[12],>256 µg/mL
same,MIC,[13],8 µg/mL
same,MIC,[14],32 µg/mL
same,MIC,[15],8 µg/mL
